tested on: cellobiose dehydrogenase; format: biochemical, Coriolus hirsutus; conditions: not given

Q: How did the Relative activity turn out when `O=C(O)CN(CCN(CC(=O)O)CC(=O)O)CC(=O)O` [EDTA] was run?
A: 45%

Q: What about the “inhibition of the enzyme” value of the same compound?
A: weakly inhibited

Q: Which Relative activity does the source give for `[N-]=[N+]=[N-].[Na+]` [NaN3, sodium azide] here?
A: 46%

Q: What about the “inhibition of the enzyme” value of the same compound?
A: weakly inhibited

same assay, conditions: 1 mM

Q: With `[Cl-].[Cl-].[Co+2]` [CoCl2] as the compound, how does the Relative activity read?
A: 53%

Q: With `[Cl][Hg][Cl]` [HgCl2] as the compound, how does the “inhibition of the enzyme” value read?
A: strongly inhibited

Q: How did the “inhibition of the enzyme” value turn out when `CCCCCCCCCCCCOS(=O)(=O)[O-].[Na+]` [SDS] was run?
A: strongly inhibited

same assay, conditions: 1 mM; incubation at 4° C. overnight

Q: Which Relative activity does the source give for `[Cl][Al]([Cl])[Cl]` [AlCl2] here?
A: 23%

Q: Which Relative activity does the source give for `[Ba+2].[Cl-].[Cl-]` [BaCl2] here?
A: 71%

Q: For `[Ca+2].[Cl-].[Cl-]` [CaCl2], which Relative activity is on record?
A: 65%

Q: With `[Cl][Cu][Cl]` [CuCl2] as the compound, how does the Relative activity read?
A: 53%

Q: `O=S(=O)([O-])[O-].[Cu+2]` [CuSO4] was tested. Which Relative activity did it give?
A: 82%

Q: Which Relative activity does the source give for `O=S(=O)([O-])[O-].[Fe+2]` [FeSO4] here?
A: 0%

Q: For `[Cl][Hg][Cl]` [HgCl2], which Relative activity is on record?
A: 0%

Q: Which Relative activity does the source give for `[Cl-].[Li+]` [LiCl2] here?
A: 45%

Q: `[Cl-].[Cl-].[Mg+2]` [MgCl2] was tested. Which Relative activity did it give?
A: 64%

Q: How did the Relative activity turn out when `[Cl][Mn][Cl]` [MnCl2] was run?
A: 35%

Q: `[Cl][Ni][Cl]` [NiCl2] was tested. Which Relative activity did it give?
A: 60%

Q: With `CCCCCCCCCCCCOS(=O)(=O)[O-].[Na+]` [SDS] as the compound, how does the Relative activity read?
A: 0%

Q: With `[Cl-].[Cl-].[Zn+2]` [ZnCl2] as the compound, how does the Relative activity read?
A: 32%

Q: For `O=S(=O)([O-])[O-].[Zn+2]` [ZnSO4], which Relative activity is on record?
A: 72%

— patent US20050181485A1, “Cellulose digesting enzyme gene and utilization of the gene” (priority 2002, published 2005)
